In patent US20250027086A1, “COMPOSITIONS AND METHODS FOR TREATMENT OF CANCERS USING MODIFIED siRNA-GEM AGENTS” (Sirnaomics, Inc., priority 2022, published 2025):
Entries after “also recorded” stand apart in the source; their conditions may differ.

Legend:
[1] = system: MiaPaCa-2 xenograft tumors; experiment: Xenograft tumor growth in NU/NU mice after subcutaneous implantation of MiaPaCa tumor cells, intratumoral injections; assay type: in vivo, mouse; details: vs control; for tumor weight: xenografts harvested Day 25, n=8, FIG. 14(a)
Procedure: Twenty-four NU/NU nude mice were purchased from Charles River Laboratories (Frederick, MD) and each housed in a single cage with standard bedding, lighting and ad libitum feed.
The human pancreatic cell carcinoma MiaPaCa-2 cell line was obtained from American Type Culture Collection (ATCC, CRL-1420™) and cultured in DMEM with 10 percent fetal bovine serum and 1 percent pen-strep in a humidified incubator with temperature at 37 degrees C., and 5 percent CO2. Subcultures were made when cell volume reached ˜80-90 percent (roughly 3-5 days). Media was changed every 3 to 4 days. All experiments were performed when the cells reached approximately 80-90 percent confluence.
MiaPaCa tumor cells (2.5×10^6 cells) in 100 μl of growth media and 100 μl of Matrigel were injected subcutaneously into the left flank of each mouse on Day 0. Body weight measured using a digital scale, and tumor volume measured using a digital caliper, were recorded […]. Tumor volume was measured using external digital calipers with modified ellipsoid formula: ½(length×width^2).
The mice were assigned to one of three groups (n=8) approximately five to ten days after subcutaneous implantation of MiaPaCa cells, when tumors had reached 100 mm^3 in volume. Twice weekly (Mon. and Thurs.) for three-four weeks, mice in all three groups received intratumoral injections of 80 μl each. Mice in the control group were injected with non-silencing (NS) siRNA with HKP(+H) as a carrier. Mice in one of the treatment groups were injected with PGN7, i.e., GEM siRNA with HKP(+H)shk1 (2.z), (SEQ. ID No. 9-10). Mice in the second treatment group were injected with STD1, i.e., GEM siRNA with HKP(+H) chk1 (2.z) (SEQ. ID No. 3-4). All injections were given under isoflurane anesthesia to minimize discomfort
Tumor volume (mm^3) and body weights were measured on Days 0, 4, 7, 11, 14, 18, 21 and 25. Mean±SE for each group (PGN7, STD1 and control) were statistically compared using analysis of variance (ANOVA) with the Tukey test. Mice were also observed for excess growth, adverse reactions to treatments and other observable, adverse signs of health. Treatments were blinded to the tracers and data analysts.
All mice were sacrificed and the implanted xenograft removed on Day 26 after initial treatment (the last treatment given on Day 25). One-third of the xenograft was fixed in […] formalin for histological analysis; one-third was frozen and one-third was preserved in RNAlater stabilization and storage solution.

MiaPaCa-2 cells = experiment: Cell viability (CellTiter-Glo) in MiaPaCa-2 pancreatic cancer cells after transfection; assay type: cell-based, human; details: in combination with lipofectamine; 96 h; n=4 (FIG. 2); read-out: IC50, MiaPaCa-2 cell viability
Procedure: (§1) MIA PaCa-2, […], LS180, HT1376, HT29, H358, H1299, OVCAR-3, HTB-9 and Panc 10.05 cells were obtained from ATCC (Rockville, MD). MiaPaCa cells were cultured in DMEM medium supplemented with 10% FBS. H358, H1299, HTB-9, N87 and Panc 10.05 cells were cultured in DMEM/10% FBS; LS180 and HT1376 in EMEM/10% FBS; HT29 cells in McCoy5A/10% FBS; OVCAR-3 cells were incubated in RPMI/20% FBS. All cells were maintained at 37 degrees C. in an atmosphere containing 5% CO^2.
The day before transfection, cells were seeded in a 384-well plate at an optimal density of between 300 and 800 cells/well. The next day, ten 3-fold serial dilutions of single, modified-backbone siRNAs or PGN6/PGN7 siRNA and Gemcitabine (GEM) mixed with siRNAs: Wee1 #7, KRAS #1, MCL1 #3 or DM2-P47 siRNAs at 1:1 ratio were prepared and combined with diluted Lipofectamine RNAiMAX (Life Technologies, Carlsbad, CA). Within 20 minutes, 10 μl of the transfection mixtures were added to the cells in a 40 μL medium. The final concentrations of siRNAs or Gemcitabine in the wells ranged from 100 nM to 0.002 nM.
Ninety-six hours following the addition of GEM or transfection mixtures, the number of viable cells was determined with CellTiter-Glo®-2.0 reagent (Promega, Madison, WI) by measuring luminescent signal using a Cytation 5 plate reader (BioTek Inc, Winooski, VT). The treatment group (n=4) mean (±SD) was compared to those of non-treated controls and were reported as relative cell viability.

OVCAR3 cells = experiment: Cell viability in ovarian cancer cell line OVCAR3; assay type: cell-based; details: OVCAR3, 800 cells per well; FIG. 13(b)
Procedure: as §1
(§2) The day before transfection, cells were seeded in a 384-well plate at an optimal density of between 300 and 800 cells/well. […]
(§3) Ninety-six hours following the addition of GEM or transfection mixtures, the number of viable cells was determined with CellTiter-Glo®-2.0 reagent (Promega, Madison, WI) by measuring luminescent signal using a Cytation 5 plate reader (BioTek Inc, Winooski, VT). […]
(§4) Using the same or similar experimental condition as are described above in Example 1, the effects of (i) PGN7 (SEQ. ID No. 9-10) plus a non-signaling oligonucleotide (“NS”), (ii) BCLxL #5 (SEQ. ID No. 14)+NS, and (iii) PGN7 and BCLxL #5 in combination were evaluated and are shown in triple negative breast cancer (MDA-MB231) and ovarian cancer (OVCAR3) cell lines in FIGS. 13 (a)-(b). […]

MDA-MB231 cells = experiment: Cell viability in triple negative breast cancer cell line MDA-MB231; assay type: cell-based; details: MDA-MB231, 400 cells per well; FIG. 13(a)
Procedure: as §1, §2, §3, §4

Substance: PGN7: modified siRNA-GEM RNAi agent (SEQ. ID No. 9-10): sense 5′-AAGAAAgAgau[GEM]uGuAu[GEM]AAu-3′; antisense 5′-AuUGAuACAGAuCuCuUuCuU[GEM][GEM]dTdT-3′ (sense AAGAAAGAGATCTGTATCAAT; antisense ATTGATACAGATCTCTTTCTTCCTT; GEM modifications; 2'-modified bases; dTdT overhang; modified_base 1 OTHER; 2'-O-methyl modified nucleotide; modified_base 2 OTHER; modified_base 3 OTHER; modified_base 4 OTHER; modified_base 5 OTHER; modified_base 6 OTHER; modified_base 7 OTHER; 2'-fluoro modified nucleotide; modified_b; 2'-O-me)
- tumor volume ([1]; intratumoral twice weekly with HKP(+H), ANOVA Tukey, p<0.02, from 14 days, FIG. 14(c)): effectively attenuated the increase; also recorded: significantly reduced tumor volume; also recorded: attenuating the growth of pancreatic tumors
- body weight ([1]; over 25 days, p>0.05, FIG. 14(b)): did not differ
- tumor weight ([1]; p>0.05): did not differ
- tumor weight ([1]; p>0.05, listed as PGN 7): did not differ significantly
- IC50 (MiaPaCa-2 cells): 0.006 nM
- IC50 (OVCAR3 cells): 0.5 nM
- IC50 (MDA-MB231 cells): 1.1 nM
